Measured values published in the NIST ThermoML archive (doi:10.1021/je400056z).

Assay: xn = mol fraction of the nth substance listed
Settings: Liquid, Vibrating tube method

CCCCCCCCCCCCC [tridecane] + O=C=O
Settings | mass density [kg/m3]
333.3 K, 17000 kPa, x2 = 0.2526 | 746.5
333.3 K, 18000 kPa, x2 = 0.0955 | 743.9
333.3 K, 18000 kPa, x2 = 0.2526 | 747.3
333.3 K, 19000 kPa, x2 = 0.0955 | 744.6
333.3 K, 19000 kPa, x2 = 0.2526 | 748.1
333.3 K, 20000 kPa, x2 = 0.0955 | 745.3
333.3 K, 20000 kPa, x2 = 0.2526 | 748.9
333.3 K, 21000 kPa, x2 = 0.0955 | 746.1
333.3 K, 21000 kPa, x2 = 0.2526 | 749.7
333.3 K, 22000 kPa, x2 = 0.0955 | 746.7
333.3 K, 22000 kPa, x2 = 0.2526 | 750.5
333.3 K, 23000 kPa, x2 = 0.0955 | 747.4
333.3 K, 23000 kPa, x2 = 0.2526 | 751.2
333.3 K, 24000 kPa, x2 = 0.0955 | 748.1
333.3 K, 24000 kPa, x2 = 0.2526 | 751.9
333.3 K, 25000 kPa, x2 = 0.0955 | 748.7
333.3 K, 25000 kPa, x2 = 0.2526 | 752.6
343.02 K, 8000 kPa, x2 = 0.5259 | 739.5
343.02 K, 9000 kPa, x2 = 0.5259 | 740.9
343.02 K, 10000 kPa, x2 = 0.5259 | 742.3
343.02 K, 11000 kPa, x2 = 0.5259 | 743.7
343.02 K, 12000 kPa, x2 = 0.5259 | 745.1
343.02 K, 13000 kPa, x2 = 0.5259 | 746.4
343.02 K, 14000 kPa, x2 = 0.5259 | 747.6
343.02 K, 15000 kPa, x2 = 0.5259 | 748.9
343.02 K, 16000 kPa, x2 = 0.5259 | 750.1
343.02 K, 17000 kPa, x2 = 0.5259 | 751.3
343.02 K, 18000 kPa, x2 = 0.5259 | 752.5
343.02 K, 19000 kPa, x2 = 0.5259 | 753.7
343.02 K, 20000 kPa, x2 = 0.5259 | 754.8
343.02 K, 21000 kPa, x2 = 0.5259 | 755.9
343.02 K, 22000 kPa, x2 = 0.5259 | 757
343.02 K, 23000 kPa, x2 = 0.5259 | 758.1
343.02 K, 24000 kPa, x2 = 0.5259 | 759.2
343.02 K, 25000 kPa, x2 = 0.5259 | 760.2
343.13 K, 15000 kPa, x2 = 0.8978 | 710.8
343.13 K, 16000 kPa, x2 = 0.8978 | 723.5
343.13 K, 17000 kPa, x2 = 0.8978 | 733.2
343.13 K, 18000 kPa, x2 = 0.8978 | 741.1
343.13 K, 19000 kPa, x2 = 0.8978 | 748
343.13 K, 20000 kPa, x2 = 0.8978 | 755
343.13 K, 21000 kPa, x2 = 0.8978 | 761.4
343.13 K, 22000 kPa, x2 = 0.8978 | 767.3
343.13 K, 23000 kPa, x2 = 0.8978 | 772.8
343.13 K, 24000 kPa, x2 = 0.8978 | 778
343.13 K, 25000 kPa, x2 = 0.8978 | 782.8
343.14 K, 9000 kPa, x2 = 0.0955 | 729.8
343.14 K, 9000 kPa, x2 = 0.2526 | 732.2
343.14 K, 10000 kPa, x2 = 0.0955 | 730.6
343.14 K, 10000 kPa, x2 = 0.2526 | 733.2
343.14 K, 11000 kPa, x2 = 0.0955 | 731.5
343.14 K, 11000 kPa, x2 = 0.2526 | 734.1
343.14 K, 12000 kPa, x2 = 0.0955 | 732.4
343.14 K, 12000 kPa, x2 = 0.2526 | 735
343.14 K, 13000 kPa, x2 = 0.0955 | 733.2
343.14 K, 13000 kPa, x2 = 0.2526 | 736
343.14 K, 14000 kPa, x2 = 0.0955 | 734.1
343.14 K, 14000 kPa, x2 = 0.2526 | 736.9
343.14 K, 15000 kPa, x2 = 0.0955 | 734.9
343.14 K, 15000 kPa, x2 = 0.2526 | 737.8
343.14 K, 16000 kPa, x2 = 0.0955 | 735.7
343.14 K, 16000 kPa, x2 = 0.2526 | 738.6
343.14 K, 17000 kPa, x2 = 0.0955 | 736.5
343.14 K, 17000 kPa, x2 = 0.2526 | 739.5
343.14 K, 18000 kPa, x2 = 0.0955 | 737.3
343.14 K, 18000 kPa, x2 = 0.2526 | 740.4
343.14 K, 19000 kPa, x2 = 0.0955 | 738.1
343.14 K, 19000 kPa, x2 = 0.2526 | 741.2
343.14 K, 20000 kPa, x2 = 0.0955 | 738.9
343.14 K, 20000 kPa, x2 = 0.2526 | 742
343.14 K, 21000 kPa, x2 = 0.0955 | 739.6
343.14 K, 21000 kPa, x2 = 0.2526 | 742.8
343.14 K, 22000 kPa, x2 = 0.0955 | 740.4
343.14 K, 22000 kPa, x2 = 0.2526 | 743.6
343.14 K, 23000 kPa, x2 = 0.0955 | 741.1
343.14 K, 23000 kPa, x2 = 0.2526 | 744.4
343.14 K, 24000 kPa, x2 = 0.0955 | 741.8
343.14 K, 24000 kPa, x2 = 0.2526 | 745.1
343.14 K, 25000 kPa, x2 = 0.0955 | 742.5
343.14 K, 25000 kPa, x2 = 0.2526 | 745.9
343.32 K, 14000 kPa, x2 = 0.7549 | 752.1
343.32 K, 15000 kPa, x2 = 0.7549 | 755.2
343.32 K, 16000 kPa, x2 = 0.7549 | 758
343.32 K, 17000 kPa, x2 = 0.7549 | 760.9
343.32 K, 18000 kPa, x2 = 0.7549 | 763.8
343.32 K, 19000 kPa, x2 = 0.7549 | 766.7
343.32 K, 20000 kPa, x2 = 0.7549 | 769.6
343.32 K, 21000 kPa, x2 = 0.7549 | 772.4
343.32 K, 22000 kPa, x2 = 0.7549 | 775.2
343.32 K, 23000 kPa, x2 = 0.7549 | 777.9
343.32 K, 24000 kPa, x2 = 0.7549 | 780.7
343.32 K, 25000 kPa, x2 = 0.7549 | 783.5
353.12 K, 9000 kPa, x2 = 0.0955 | 722.6
353.12 K, 9000 kPa, x2 = 0.2526 | 724.8
353.12 K, 10000 kPa, x2 = 0.0955 | 723.6
353.12 K, 10000 kPa, x2 = 0.2526 | 725.8
353.12 K, 11000 kPa, x2 = 0.0955 | 724.5
353.12 K, 11000 kPa, x2 = 0.2526 | 726.8
353.12 K, 12000 kPa, x2 = 0.0955 | 725.4
353.12 K, 12000 kPa, x2 = 0.2526 | 727.8
353.12 K, 13000 kPa, x2 = 0.0955 | 726.3
353.12 K, 13000 kPa, x2 = 0.2526 | 728.8
353.12 K, 14000 kPa, x2 = 0.0955 | 727.2
353.12 K, 14000 kPa, x2 = 0.2526 | 729.7
353.12 K, 15000 kPa, x2 = 0.0955 | 728.1
353.12 K, 15000 kPa, x2 = 0.2526 | 730.7
353.12 K, 16000 kPa, x2 = 0.0955 | 729
353.12 K, 16000 kPa, x2 = 0.2526 | 731.6
353.12 K, 17000 kPa, x2 = 0.0955 | 729.9
353.12 K, 17000 kPa, x2 = 0.2526 | 732.5
353.12 K, 18000 kPa, x2 = 0.0955 | 730.7
353.12 K, 18000 kPa, x2 = 0.2526 | 733.4
353.12 K, 19000 kPa, x2 = 0.0955 | 731.5
353.12 K, 19000 kPa, x2 = 0.2526 | 734.3
